We go through 1 compound from ChEMBL document CHEMBL6074668 (J Med Chem, 2024).

The structures appear in SMILES notation. Calls of active or inactive are those of the source. The rule behind the calls is not given here.

Assay [1] deals with Atypical chemokine receptor 3 (Homo sapiens) (UniProt P25106). The assay is described as follows: Agonist activity at CXCR7 receptor (unknown origin) assessed as beta arrestin2 recruitment at >=3 uM by PRESTO-Tango assay. It is filed as functional. The following applies: filed as agonist.
Chain of Atypical chemokine receptor 3 (Homo sapiens) (P25106 whole entry): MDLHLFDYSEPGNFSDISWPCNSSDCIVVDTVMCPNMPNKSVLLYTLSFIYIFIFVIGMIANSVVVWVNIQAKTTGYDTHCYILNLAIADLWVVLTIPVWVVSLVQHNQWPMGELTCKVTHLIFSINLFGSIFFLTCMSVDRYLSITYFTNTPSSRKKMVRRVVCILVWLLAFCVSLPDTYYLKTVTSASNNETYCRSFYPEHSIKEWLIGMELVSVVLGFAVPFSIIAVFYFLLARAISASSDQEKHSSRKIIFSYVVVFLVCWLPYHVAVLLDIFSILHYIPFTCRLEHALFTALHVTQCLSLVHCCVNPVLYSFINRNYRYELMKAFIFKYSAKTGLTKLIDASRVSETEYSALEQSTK
For assay [2], the target named is T1, 5-hydroxytryptamine receptor 3A (Homo sapiens, UniProt P46098).
T1 sequence (P46098 whole entry): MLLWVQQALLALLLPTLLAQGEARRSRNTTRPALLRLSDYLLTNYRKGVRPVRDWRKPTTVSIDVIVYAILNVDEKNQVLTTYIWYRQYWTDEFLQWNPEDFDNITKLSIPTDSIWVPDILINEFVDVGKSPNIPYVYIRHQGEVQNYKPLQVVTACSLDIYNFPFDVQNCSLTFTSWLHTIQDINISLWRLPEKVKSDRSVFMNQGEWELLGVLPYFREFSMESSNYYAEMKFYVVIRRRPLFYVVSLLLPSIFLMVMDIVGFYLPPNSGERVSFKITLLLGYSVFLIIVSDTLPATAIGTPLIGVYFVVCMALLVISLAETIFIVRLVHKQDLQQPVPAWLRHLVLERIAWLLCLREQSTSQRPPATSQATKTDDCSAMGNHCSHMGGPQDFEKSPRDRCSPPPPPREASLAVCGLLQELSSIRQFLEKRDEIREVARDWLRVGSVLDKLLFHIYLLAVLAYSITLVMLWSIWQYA
The assay is described as follows: Binding affinity to 5HT3 receptor (unknown origin) by radioligand displacement assay. (Displacement assays read how much labelled ligand stays bound in the presence of the test substance.)

The target in assay [3] is Sodium-dependent noradrenaline transporter (Homo sapiens, UniProt P23975).
Chain of Sodium-dependent noradrenaline transporter (P23975 whole entry): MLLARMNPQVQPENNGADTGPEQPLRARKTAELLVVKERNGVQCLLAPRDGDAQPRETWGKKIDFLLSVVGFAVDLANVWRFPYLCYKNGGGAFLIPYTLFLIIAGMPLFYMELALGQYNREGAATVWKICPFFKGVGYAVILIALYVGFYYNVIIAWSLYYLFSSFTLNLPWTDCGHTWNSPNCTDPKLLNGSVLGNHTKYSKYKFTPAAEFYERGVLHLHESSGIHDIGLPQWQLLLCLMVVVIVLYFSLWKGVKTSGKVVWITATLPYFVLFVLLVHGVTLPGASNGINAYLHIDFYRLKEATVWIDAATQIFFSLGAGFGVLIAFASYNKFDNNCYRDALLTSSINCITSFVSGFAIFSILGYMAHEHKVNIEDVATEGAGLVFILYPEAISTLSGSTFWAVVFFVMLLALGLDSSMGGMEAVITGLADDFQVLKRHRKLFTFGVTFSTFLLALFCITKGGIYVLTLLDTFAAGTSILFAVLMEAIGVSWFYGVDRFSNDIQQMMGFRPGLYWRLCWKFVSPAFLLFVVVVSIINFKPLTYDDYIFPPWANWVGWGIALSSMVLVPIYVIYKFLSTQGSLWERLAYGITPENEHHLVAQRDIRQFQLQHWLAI
Description: Binding affinity to NET (unknown origin) by radioligand displacement assay
Assay [4] deals with Voltage-gated inwardly rectifying potassium channel KCNH2 (Homo sapiens, UniProt Q12809). The assay is described as follows: Binding affinity to hERG by radioligand displacement assay. It is filed as toxicity. In general terms: The hERG channel carries a current that helps repolarise heart muscle cells.
Chain of Voltage-gated inwardly rectifying potassium channel KCNH2 (Q12809 whole entry): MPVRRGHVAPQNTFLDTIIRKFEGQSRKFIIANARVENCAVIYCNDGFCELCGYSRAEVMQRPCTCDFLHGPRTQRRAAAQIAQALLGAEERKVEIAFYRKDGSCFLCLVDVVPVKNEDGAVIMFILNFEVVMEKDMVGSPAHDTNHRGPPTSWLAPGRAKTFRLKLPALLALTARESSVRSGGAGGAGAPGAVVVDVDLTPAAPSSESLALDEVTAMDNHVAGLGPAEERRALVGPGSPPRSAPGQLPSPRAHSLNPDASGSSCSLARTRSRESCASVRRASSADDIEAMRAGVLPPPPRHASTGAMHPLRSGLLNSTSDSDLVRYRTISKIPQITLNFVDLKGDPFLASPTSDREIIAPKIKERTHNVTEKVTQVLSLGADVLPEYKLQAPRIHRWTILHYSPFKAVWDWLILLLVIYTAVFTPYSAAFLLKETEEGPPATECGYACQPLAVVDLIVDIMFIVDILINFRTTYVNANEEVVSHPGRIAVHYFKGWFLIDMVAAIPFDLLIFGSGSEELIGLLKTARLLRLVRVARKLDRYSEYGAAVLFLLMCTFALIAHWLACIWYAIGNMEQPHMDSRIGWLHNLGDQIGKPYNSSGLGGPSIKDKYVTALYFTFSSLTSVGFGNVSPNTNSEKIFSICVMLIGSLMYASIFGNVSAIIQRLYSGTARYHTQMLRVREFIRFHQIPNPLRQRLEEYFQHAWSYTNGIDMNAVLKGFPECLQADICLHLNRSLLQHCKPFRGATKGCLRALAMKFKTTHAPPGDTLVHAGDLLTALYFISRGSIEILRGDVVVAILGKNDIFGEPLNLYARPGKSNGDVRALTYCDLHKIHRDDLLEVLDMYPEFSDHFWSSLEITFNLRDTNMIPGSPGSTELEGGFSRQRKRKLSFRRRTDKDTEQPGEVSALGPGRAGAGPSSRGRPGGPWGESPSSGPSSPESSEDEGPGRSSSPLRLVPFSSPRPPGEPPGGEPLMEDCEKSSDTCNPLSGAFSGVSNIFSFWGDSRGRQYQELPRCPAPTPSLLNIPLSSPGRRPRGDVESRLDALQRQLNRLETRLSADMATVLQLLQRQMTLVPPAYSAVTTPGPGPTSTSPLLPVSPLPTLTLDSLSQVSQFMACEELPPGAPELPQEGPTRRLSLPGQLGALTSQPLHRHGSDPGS
Assay [5] deals with T2, Alpha-1D adrenergic receptor (Homo sapiens, UniProt P25100).
T2 sequence (P25100 whole entry): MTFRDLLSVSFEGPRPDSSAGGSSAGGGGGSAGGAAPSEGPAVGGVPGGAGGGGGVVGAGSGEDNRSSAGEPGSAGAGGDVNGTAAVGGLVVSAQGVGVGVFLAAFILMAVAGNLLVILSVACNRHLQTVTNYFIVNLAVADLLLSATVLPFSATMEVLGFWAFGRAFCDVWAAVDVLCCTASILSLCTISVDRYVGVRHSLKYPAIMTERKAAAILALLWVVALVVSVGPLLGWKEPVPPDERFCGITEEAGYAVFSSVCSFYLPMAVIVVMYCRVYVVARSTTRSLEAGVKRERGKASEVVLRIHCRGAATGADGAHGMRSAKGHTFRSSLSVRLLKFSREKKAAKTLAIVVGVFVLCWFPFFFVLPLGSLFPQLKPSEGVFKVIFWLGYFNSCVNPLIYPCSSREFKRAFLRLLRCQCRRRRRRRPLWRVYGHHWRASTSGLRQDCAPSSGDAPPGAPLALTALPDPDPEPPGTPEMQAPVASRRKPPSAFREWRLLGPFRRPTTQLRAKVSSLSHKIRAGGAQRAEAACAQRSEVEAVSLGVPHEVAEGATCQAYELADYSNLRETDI
The assay is described as follows: Binding affinity to alpha1D adrenergic receptor (unknown origin) by radioligand displacement assay.

Assay [6] concerns the target T3, Alpha-2C adrenergic receptor (Homo sapiens, UniProt P18825).
T3 sequence (P18825 whole entry): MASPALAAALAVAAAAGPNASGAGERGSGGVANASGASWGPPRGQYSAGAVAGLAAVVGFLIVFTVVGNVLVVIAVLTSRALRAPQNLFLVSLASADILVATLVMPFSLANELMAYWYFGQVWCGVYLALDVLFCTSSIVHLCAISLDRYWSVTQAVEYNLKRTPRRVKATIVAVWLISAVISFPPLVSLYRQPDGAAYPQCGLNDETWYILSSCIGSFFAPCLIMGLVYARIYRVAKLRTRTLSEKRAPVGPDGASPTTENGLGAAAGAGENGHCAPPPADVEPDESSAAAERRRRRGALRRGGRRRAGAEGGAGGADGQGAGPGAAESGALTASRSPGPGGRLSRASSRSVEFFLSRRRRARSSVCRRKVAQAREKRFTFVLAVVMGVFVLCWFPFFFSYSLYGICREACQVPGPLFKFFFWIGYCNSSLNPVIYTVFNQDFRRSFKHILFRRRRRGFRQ
The assay is described as follows: Binding affinity to alpha2C adrenergic receptor (unknown origin) by radioligand displacement assay.

In assay [7] the target is T4, Alpha-1B adrenergic receptor (Homo sapiens, UniProt P35368).
T4 sequence (P35368 whole entry): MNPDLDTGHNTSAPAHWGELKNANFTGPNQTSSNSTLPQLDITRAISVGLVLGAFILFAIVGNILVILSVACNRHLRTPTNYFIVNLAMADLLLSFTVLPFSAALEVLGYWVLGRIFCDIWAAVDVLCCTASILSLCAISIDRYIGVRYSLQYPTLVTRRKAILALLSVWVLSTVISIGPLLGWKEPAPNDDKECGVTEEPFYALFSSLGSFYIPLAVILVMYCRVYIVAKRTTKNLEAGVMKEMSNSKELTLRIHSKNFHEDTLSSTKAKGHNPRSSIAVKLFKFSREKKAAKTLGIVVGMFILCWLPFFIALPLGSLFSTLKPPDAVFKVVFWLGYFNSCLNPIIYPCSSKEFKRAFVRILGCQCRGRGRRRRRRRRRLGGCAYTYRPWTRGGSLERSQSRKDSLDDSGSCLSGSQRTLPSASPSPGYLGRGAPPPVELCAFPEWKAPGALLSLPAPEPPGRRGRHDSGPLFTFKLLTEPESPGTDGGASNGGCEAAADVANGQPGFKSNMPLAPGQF
The assay is described as follows: Binding affinity to alpha1B adrenergic receptor (unknown origin) by radioligand displacement assay.

Assay [8] deals with 5-hydroxytryptamine receptor 2A (Homo sapiens, UniProt P28223).
Chain of 5-hydroxytryptamine receptor 2A (P28223 whole entry): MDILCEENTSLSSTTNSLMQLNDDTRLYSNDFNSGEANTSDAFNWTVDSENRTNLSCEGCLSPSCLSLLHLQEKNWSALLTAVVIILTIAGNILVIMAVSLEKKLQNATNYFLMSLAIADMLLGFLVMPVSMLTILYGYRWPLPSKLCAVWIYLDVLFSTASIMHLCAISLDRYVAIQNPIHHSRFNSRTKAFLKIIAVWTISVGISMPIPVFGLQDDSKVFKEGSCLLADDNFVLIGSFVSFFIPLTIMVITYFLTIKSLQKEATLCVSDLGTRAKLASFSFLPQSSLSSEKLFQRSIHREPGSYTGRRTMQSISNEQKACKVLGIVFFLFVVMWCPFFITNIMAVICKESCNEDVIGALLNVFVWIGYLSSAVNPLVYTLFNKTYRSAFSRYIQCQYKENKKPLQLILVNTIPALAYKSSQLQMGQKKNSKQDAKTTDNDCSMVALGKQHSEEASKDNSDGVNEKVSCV
Description: Binding affinity to 5HT2A receptor (unknown origin) by radioligand displacement assay
The target in assay [9] is T5, Kappa-type opioid receptor (Homo sapiens, UniProt P41145). The assay is described as follows: Binding affinity to kappa opioid receptor (unknown origin) by radioligand displacement assay.
T5 sequence (P41145 whole entry): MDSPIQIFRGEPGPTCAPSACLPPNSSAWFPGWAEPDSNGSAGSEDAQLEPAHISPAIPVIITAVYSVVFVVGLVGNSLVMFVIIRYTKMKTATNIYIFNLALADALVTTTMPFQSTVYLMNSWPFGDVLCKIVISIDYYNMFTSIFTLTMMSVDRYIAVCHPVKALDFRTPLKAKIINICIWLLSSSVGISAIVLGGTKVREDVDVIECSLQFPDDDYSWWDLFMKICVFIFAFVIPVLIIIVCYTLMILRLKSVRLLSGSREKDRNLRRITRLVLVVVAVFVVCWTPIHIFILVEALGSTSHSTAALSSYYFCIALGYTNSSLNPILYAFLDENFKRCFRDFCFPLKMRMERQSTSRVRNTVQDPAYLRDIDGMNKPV
Assay [10] in a line: Binding affinity to alpha7 […] receptor (unknown origin) by radioligand displacement assay. On the set-up: species or system Homo sapiens.
The target in assay [11] is 5-hydroxytryptamine receptor 5A (Homo sapiens, UniProt P47898). The assay is described as follows: Binding affinity to 5HT5A receptor (unknown origin) by radioligand displacement assay.
Chain of 5-hydroxytryptamine receptor 5A (P47898 whole entry): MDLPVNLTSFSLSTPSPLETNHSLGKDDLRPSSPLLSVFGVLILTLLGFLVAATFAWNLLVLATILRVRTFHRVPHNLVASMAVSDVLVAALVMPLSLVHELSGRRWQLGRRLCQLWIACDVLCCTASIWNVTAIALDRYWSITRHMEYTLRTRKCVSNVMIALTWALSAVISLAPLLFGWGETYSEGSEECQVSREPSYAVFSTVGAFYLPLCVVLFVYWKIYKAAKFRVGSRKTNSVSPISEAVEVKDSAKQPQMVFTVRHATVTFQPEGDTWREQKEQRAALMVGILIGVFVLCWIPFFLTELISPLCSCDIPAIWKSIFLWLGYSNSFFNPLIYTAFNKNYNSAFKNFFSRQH
In assay [12] the target is 5-hydroxytryptamine receptor 2B (Homo sapiens, UniProt P41595). The assay is described as follows: Binding affinity to 5HT2B receptor (unknown origin) by radioligand displacement assay.
Chain of 5-hydroxytryptamine receptor 2B (P41595 whole entry): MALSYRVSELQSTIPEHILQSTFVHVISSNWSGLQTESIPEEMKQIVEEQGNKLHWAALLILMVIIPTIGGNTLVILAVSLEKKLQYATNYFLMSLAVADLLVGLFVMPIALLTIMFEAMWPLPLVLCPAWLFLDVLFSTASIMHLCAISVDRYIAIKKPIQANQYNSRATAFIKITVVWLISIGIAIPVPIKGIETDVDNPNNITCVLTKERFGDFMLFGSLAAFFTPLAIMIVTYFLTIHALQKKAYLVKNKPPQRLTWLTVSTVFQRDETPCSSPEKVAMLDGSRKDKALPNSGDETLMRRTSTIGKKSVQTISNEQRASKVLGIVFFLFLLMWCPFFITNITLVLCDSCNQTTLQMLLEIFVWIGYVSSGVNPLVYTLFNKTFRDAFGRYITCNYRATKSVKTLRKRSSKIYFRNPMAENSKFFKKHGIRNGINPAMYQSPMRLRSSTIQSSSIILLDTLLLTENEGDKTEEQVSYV
Assay [13] has as its target Mu-type opioid receptor (Homo sapiens, UniProt P35372). The assay is described as follows: Displacement of [3H]DAMGO from mu opioid receptor (unknown origin) expressed in CHO cell membrane by competitive radioligand binding assay. It is filed as cell membranes.
Assay [14] addresses T5, Kappa-type opioid receptor. The assay is described as follows: Agonist activity at human kappa opioid receptor expressed in CHO-K1 cells assessed as inhibition of forskolin-stimulated cAMP accumulation by HitHunter assay based luminescence analysis. In kind it is functional, cell-based.

Chain of Mu-type opioid receptor (P35372 whole entry): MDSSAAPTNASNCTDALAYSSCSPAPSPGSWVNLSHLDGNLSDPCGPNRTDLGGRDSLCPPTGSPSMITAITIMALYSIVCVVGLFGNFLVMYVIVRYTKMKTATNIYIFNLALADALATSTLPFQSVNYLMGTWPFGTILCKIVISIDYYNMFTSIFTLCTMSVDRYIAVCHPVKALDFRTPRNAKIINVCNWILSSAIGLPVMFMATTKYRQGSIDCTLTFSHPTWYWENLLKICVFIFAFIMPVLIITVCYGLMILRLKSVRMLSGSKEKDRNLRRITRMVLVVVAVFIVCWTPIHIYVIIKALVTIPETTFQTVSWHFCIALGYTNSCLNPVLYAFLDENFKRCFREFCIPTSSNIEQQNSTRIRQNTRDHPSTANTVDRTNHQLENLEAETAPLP

With `C/C=C1/CN2CC[C@]34C(=C(C(=O)OC)[C@H]1C[C@H]23)Nc1ccc(I)cc14`, the Activity result in [1] is “Active; Weak Activity Compared To Vuf11207”. For the same compound, the inhibitory constant (Ki) (commonly the dissociation constant of the complex between target and ligand, obtained from inhibition or displacement) in [2] came to 384 nM; in assay [3], 3440 nM; in assay [4], 1100 nM; in assay [5], 1140 nM; in [6] it was 2860 nM; in assay [7] it was 2020 nM. Also, the inhibition constant (Ki) in assay [8] stood at 2310 nM; in [9], 1 nM; in assay [10] it was 5490 nM; in assay [11] it was 829 nM; in [12], 767 nM; in [13], 3600 nM. The concentration giving a half-maximal response (EC50) (usually the concentration giving half of the maximal effect) in assay [14] came to 5.7 nM.
